Test results taken from patent US20170275287A1, “NOVEL N2, N4, N7, 6-TETRASUBSTITUTED PTERIDINE-2,4,7-TRIAMINE AND 2, 4, 6, 7-TETRASUBSTITUTED PTERIDINE COMPOUNDS AND METHODS OF SYNTHESIS AND USE THEREOF” (Janus Biotherapeutics, Inc., priority 2014, published 2017).
pIC50: −log10 of the molar value.

Experiments:
TLR9 = molecular target: T1, TLR9 (Mus musculus, UniProt Q9EQU3); test: In vivo TLR9 knockdown (CpG-DNA challenge, serum cytokines); design: species or system mice
T1 construct: endogenous in cells
T1 sequence (Q9EQU3 26-1032): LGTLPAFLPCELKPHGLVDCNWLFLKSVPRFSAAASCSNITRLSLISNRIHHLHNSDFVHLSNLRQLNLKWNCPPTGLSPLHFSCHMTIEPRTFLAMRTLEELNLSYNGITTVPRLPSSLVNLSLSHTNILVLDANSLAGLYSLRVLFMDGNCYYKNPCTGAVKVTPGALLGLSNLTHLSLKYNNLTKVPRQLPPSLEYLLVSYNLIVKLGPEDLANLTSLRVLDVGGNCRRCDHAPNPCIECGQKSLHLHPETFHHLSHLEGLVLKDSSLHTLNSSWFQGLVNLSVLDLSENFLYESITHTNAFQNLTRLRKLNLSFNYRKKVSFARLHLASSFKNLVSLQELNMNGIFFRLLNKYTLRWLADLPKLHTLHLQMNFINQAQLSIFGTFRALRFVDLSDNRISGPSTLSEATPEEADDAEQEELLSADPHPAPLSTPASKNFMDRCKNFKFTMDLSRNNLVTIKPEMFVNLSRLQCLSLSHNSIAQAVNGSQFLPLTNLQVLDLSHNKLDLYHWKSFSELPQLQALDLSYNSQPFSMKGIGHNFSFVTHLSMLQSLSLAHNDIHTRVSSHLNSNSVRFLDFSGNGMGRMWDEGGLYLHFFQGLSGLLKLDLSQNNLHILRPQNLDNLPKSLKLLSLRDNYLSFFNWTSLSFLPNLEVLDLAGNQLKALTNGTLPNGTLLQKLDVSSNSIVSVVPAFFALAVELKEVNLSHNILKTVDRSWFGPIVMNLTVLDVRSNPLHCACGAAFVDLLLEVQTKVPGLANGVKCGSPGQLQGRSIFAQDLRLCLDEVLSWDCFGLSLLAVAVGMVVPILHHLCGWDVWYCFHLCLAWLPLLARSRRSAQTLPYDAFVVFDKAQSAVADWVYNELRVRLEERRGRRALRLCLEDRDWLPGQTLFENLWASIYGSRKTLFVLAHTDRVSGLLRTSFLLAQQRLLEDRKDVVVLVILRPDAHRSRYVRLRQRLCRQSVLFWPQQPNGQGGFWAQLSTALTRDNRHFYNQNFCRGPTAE
Method: Mice were treated with test antagonist at varying doses at T=0 hr. Agonist treatment (CpG-DNA) dosed one hour later, T=1 hr for IP groups and two hours later, T=2 hr for PO groups. Necropsy performed 3 hours post agonist treatment, T=4 hr (IP groups) or T=5 hr (PO groups). Serum cytokines induced by the TLR agonist are measured by ELISA. Groups size per dose, n=3. The mean+/−SD of two independent ELISA's at differing serum dilutions is plotted.

CYP1A2 = molecular target: T2, CYP1A2 (Homo sapiens, UniProt P05177); test: Cytochrome p450 inhibition (CEREP); assay type: in vitro ADME; conditions: 10 μM
T2 construct: CEREP (contract laboratory)
T2 sequence (P05177 whole entry): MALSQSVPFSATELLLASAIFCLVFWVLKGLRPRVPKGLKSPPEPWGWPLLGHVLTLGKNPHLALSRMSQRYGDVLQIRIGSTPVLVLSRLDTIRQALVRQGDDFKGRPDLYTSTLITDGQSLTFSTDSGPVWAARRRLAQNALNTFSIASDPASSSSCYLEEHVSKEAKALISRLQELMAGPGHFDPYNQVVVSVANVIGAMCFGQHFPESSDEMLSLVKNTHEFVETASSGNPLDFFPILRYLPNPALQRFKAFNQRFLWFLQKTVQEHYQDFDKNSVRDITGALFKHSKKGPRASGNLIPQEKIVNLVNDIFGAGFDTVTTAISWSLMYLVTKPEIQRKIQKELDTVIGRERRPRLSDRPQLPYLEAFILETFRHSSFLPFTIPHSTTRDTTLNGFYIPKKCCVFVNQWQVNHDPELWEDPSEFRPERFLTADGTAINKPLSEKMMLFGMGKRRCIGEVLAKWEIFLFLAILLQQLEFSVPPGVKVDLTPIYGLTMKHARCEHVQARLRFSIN
Method: (§1) JB6121 was also tested for CYP inhibition, see Table 6 below. Assays where performed by CEREP, Seattle, Wash., according to Atkinson, A et al., 2005, Drug Metab. Dispos. 33:1637-1647.

CYP2B6 = molecular target: T3, CYP2B6 (Homo sapiens, UniProt P20813); test: Cytochrome p450 inhibition (CEREP); assay type: in vitro ADME; conditions: 10 μM
T3 construct: CEREP (contract laboratory)
T3 sequence (P20813 whole entry): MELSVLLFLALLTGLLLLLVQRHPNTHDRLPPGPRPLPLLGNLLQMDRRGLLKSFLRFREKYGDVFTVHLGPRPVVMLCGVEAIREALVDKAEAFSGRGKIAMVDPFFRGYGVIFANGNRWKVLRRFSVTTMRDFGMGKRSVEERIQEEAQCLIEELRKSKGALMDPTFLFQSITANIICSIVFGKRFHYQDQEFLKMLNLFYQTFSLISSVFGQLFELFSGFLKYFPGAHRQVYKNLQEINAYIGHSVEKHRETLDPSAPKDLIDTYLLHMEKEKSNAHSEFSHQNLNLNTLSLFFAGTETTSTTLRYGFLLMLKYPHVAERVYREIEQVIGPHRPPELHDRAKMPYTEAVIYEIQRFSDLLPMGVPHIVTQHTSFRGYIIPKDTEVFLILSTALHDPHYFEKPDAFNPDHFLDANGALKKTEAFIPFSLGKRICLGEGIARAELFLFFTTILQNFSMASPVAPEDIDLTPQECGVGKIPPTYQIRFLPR
Method: as §1

CYP2C19 = molecular target: T4, CYP2C19 (Homo sapiens, UniProt P33261); test: Cytochrome p450 inhibition (CEREP); assay type: in vitro ADME; conditions: 10 μM
T4 construct: CEREP (contract laboratory)
T4 sequence (P33261 whole entry): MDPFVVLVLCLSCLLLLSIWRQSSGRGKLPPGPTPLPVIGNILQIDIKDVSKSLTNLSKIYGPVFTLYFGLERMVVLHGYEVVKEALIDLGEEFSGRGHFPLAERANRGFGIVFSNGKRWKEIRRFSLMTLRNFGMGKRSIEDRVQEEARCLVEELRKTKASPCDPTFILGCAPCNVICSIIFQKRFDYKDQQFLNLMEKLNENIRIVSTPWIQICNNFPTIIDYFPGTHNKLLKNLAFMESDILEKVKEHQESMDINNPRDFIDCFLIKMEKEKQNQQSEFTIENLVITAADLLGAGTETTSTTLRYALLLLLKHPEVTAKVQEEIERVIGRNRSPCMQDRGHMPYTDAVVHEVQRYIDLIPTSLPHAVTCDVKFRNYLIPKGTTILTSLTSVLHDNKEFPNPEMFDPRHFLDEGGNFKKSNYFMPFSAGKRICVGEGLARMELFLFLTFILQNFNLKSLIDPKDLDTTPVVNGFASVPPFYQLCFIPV
Method: as §1

CYP2C8 = molecular target: T5, CYP2C8 (Homo sapiens, UniProt P10632); test: Cytochrome p450 inhibition (CEREP); assay type: in vitro ADME; conditions: 10 μM
T5 construct: CEREP (contract laboratory)
T5 sequence (P10632 whole entry): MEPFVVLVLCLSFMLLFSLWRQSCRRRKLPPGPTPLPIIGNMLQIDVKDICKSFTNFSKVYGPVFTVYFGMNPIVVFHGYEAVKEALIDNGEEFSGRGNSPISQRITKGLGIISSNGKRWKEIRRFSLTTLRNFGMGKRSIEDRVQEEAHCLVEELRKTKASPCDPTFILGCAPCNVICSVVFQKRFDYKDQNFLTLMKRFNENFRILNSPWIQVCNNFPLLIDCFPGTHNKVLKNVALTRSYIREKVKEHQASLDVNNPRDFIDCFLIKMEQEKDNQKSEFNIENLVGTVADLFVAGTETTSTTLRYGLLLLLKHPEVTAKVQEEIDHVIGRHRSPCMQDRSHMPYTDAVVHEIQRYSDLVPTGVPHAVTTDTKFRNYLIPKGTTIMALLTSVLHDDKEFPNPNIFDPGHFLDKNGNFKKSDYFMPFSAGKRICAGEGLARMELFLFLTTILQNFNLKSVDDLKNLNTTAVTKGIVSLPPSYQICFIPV
Method: as §1

CYP2C9 = molecular target: T6, CYP2C9 (Homo sapiens, UniProt P11712); test: Cytochrome p450 inhibition (CEREP); assay type: in vitro ADME; conditions: 10 μM
T6 construct: CEREP (contract laboratory)
T6 sequence (P11712 whole entry): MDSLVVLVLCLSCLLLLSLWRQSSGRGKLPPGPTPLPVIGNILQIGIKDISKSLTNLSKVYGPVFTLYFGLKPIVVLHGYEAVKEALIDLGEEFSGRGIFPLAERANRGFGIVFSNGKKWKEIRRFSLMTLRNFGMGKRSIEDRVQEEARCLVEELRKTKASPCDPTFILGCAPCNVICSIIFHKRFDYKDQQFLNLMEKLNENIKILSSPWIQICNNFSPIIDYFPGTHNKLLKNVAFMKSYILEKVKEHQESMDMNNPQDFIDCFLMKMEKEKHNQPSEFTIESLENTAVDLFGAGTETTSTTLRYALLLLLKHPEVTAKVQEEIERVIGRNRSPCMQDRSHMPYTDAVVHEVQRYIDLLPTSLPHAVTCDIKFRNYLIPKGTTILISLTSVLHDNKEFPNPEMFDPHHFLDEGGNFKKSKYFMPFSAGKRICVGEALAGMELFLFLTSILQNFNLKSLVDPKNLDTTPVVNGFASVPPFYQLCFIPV
Method: as §1

CYP2D6 = molecular target: T7, CYP2D6 (Homo sapiens, UniProt P10635); test: Cytochrome p450 inhibition (CEREP); assay type: in vitro ADME; conditions: 10 μM
T7 construct: CEREP (contract laboratory)
T7 sequence (P10635 whole entry): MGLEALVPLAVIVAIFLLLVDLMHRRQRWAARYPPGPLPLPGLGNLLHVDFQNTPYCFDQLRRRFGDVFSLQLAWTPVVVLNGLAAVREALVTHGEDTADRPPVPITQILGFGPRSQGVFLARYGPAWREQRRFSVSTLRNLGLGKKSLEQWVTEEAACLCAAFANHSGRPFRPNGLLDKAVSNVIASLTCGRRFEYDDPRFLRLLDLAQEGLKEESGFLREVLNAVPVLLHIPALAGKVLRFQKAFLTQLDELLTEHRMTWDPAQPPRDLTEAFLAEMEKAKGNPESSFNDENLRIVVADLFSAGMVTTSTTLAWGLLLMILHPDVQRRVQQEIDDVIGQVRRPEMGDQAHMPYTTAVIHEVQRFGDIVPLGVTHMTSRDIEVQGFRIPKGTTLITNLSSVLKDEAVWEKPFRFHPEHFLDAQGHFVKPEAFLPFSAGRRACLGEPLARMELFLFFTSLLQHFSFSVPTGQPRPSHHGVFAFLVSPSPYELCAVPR
Method: as §1

CYP3A4 = molecular target: T8, CYP3A4 (Homo sapiens, UniProt P08684); test: Cytochrome p450 inhibition (CEREP); assay type: in vitro ADME; conditions: 10 μM
T8 construct: CEREP (contract laboratory)
T8 sequence (P08684 whole entry): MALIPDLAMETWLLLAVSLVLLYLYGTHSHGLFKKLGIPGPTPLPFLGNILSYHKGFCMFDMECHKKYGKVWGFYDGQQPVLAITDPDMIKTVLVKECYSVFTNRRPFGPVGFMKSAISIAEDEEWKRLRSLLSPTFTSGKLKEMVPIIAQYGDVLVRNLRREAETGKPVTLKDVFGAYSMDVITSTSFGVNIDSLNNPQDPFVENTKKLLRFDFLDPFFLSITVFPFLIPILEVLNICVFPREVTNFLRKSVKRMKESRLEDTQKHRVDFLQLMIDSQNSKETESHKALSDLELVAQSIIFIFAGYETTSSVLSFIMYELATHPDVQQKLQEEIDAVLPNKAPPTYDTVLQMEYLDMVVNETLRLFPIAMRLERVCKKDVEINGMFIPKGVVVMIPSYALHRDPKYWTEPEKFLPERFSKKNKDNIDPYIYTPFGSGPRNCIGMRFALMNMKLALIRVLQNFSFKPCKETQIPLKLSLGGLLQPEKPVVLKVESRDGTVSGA
Method: as §1

[1] = tested on: M (non-selective) Muscarinic Receptor; test: Receptor cross-reactivity binding panel (CEREP)
Text: The receptor cross-reactivity profile is composed of 71 binding and 27 enzyme assays. The binding assay panel is broadly defined with roughly an equal number of selective, central and peripheral therapeutically relevant targets. The enzyme assay panel includes the most representative targets from diverse enzyme families with a particular focus on phosphatases and specific enzymes involved in cell cycle regulation. Assays where performed by CEREP, Seattle, Wash., with protocols similar to Cordeaux, Y. et al., 2004 Brit. J. Pharmacol., 143:705-714. JB6121 was tested for receptor cross reactivity at 10 μM for approximately 100 receptors and enzymes. Any % inhibition greater than 50% (IC50<10 μM) is highlighted below in Table 7.

five bacterial strains = test: Non-GLP AMES test (BioRelience); conditions: five bacterial strains plus or minus S9 fraction to 5000 μg
Method: A non-GLP AMES test study was performed by BioRelience Inc, MD according to Maron, D. M. and Ames, B. N., 1983, Mutation Res., 113:173-215. The test was performed in five bacterial strains plus or minus S9 fraction to 5000 μg.

CN1CCN(c2nc(NCCN3CCOCC3)c3nc(Cl)c(NCCN4CCOCC4)nc3n2)CC1 [JB6121, 6-chloro-2-(4-methylpiperazin-1-yl)-N^4,N^7-bis(2-morpholinoethyl)pteridine-4,7-diamine]
ID50, TLR9 knockdown, IP injection (TLR9; mice, IP, CpG-DNA 1 h later): 55.27 μg injection dose
ID50, TLR9 knockdown, PO gavage (TLR9; mice, PO, CpG-DNA 2 h later): 59.99 μg delivery dose
ED50 (TLR9; mouse, translated for a 25 gram mouse, read-out: ID50, TLR9 knockdown): ~2.4 mg/kg
CYP1A2 Mean % Control (CYP1A2): 97.0%
CYP2B6 Mean % Control (CYP2B6): 58.2%
CYP2C19 Mean % Control (CYP2C19): 92.9%
CYP2C8 Mean % Control (CYP2C8): 87.7%
CYP2C9 Mean % Control (CYP2C9): 46.7%
CYP2D6 Mean % Control (CYP2D6): 80.9%
CYP3A4, BFC substrate Mean % Control (CYP3A4; BFC substrate): 94.1%
CYP3A4, BzRes substrate Mean % Control (CYP3A4; BzRes substrate): 104.8%
% Ligand Inhibition, M (non-selective) Muscarinic Receptor ([1]; 10 μM): 63.1%
pIC50 ([1]; most-likely, estimated from 10 μM result): < 5.30
AMES test (five bacterial strains): no toxicity
